# ChEMBL document CHEMBL1201862, “PubChem BioAssay data set” (2004)
#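 All cell lines were grown in 96-well plates and treated with compound for 48 hours. Abbreviation: GI50, concentration required for 50% inhibition of growth.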 Calls of active or inactive are those of the source. Cut-off read from the data, not from the text of the source: active = GI50 up to about 1.1 µM and inactive = higher.
# How the values were obtained:
# Assay in all cases: NCI anticancer screen, dose series, 48 h
# HOP-92 = system: HOP-92
# HCC 2998 = system: HCC 2998
# HOP-18 = system: HOP-18
# KM-20L2 = system: KM-20L2
# SN12C = system: SN12C
# NCI-H226 = system: NCI-H226
# OVCAR-3 = system: OVCAR-3
# SR = system: SR
# M14 = system: M14
# HOP-62 = system: HOP-62
# SK-MEL-2 = system: SK-MEL-2
# CAKI-1 = system: CAKI-1
# OVCAR-8 = system: OVCAR-8
# LXFL 529 = system: LXFL 529
# OVCAR-4 = system: OVCAR-4
# Malme-3M = system: Malme-3M
# HCT-116 = system: HCT-116
# DMS-273 = system: DMS-273
# HL-60 = system: HL-60
# KM12 = system: KM12
# SW-620 = system: SW-620
# HCT-15 = system: HCT-15
# M19-MEL = system: M19-MEL
# LOX IMVI = system: LOX IMVI
# COLO 205 = system: COLO 205
# SNB-19 = system: SNB-19
# HT-29 = system: HT-29
# UO-31 = system: UO-31
# SF-295 = system: SF-295
# UACC-257 = system: UACC-257
# NCI-H460 = system: NCI-H460
# OVCAR-5 = system: OVCAR-5
# K562 = system: K562
# TK-10 = system: TK-10
# 786-0 = system: 786-0
# MOLT-4 = system: MOLT-4
# A549 = system: A549
# NCI-H23 = system: NCI-H23
# SNB-75 = system: SNB-75
# ACHN = system: ACHN
# XF498 = system: XF498
# NCI-H522 = system: NCI-H522
# SF-268 = system: SF-268
# SF-539 = system: SF-539
# A498 = system: A498
# U-251 = system: U-251
# DMS-114 = system: DMS-114
# UACC-62 = system: UACC-62
# RXF 393 = system: RXF 393
# SK-OV-3 = system: SK-OV-3
# RPMI-8226 = system: RPMI-8226
# IGROV-1 = system: IGROV-1
# EKVX = system: EKVX
# CCRF-CEM = system: CCRF-CEM
# SK-MEL-28 = system: SK-MEL-28
# SNB-78 = system: SNB-78
# SK-MEL-5 = system: SK-MEL-5
# DLD-1 = system: DLD-1
compound,measurement,setting,value
O=C(Nc1cccc(C(F)(F)F)c1)c1cc(-c2ccccc2)nc(S)n1,GI50,HOP-92,> 100 µM (inactive)
same,GI50,HCC 2998,> 100 µM (inactive)
same,GI50,HOP-18,> 100 µM (inactive)
same,GI50,KM-20L2,> 100 µM (inactive)
same,GI50,SN12C,> 100 µM (inactive)
same,GI50,NCI-H226,> 100 µM (inactive)
same,GI50,OVCAR-3,> 100 µM (inactive)
same,GI50,SR,> 100 µM (inactive)
same,GI50,M14,> 100 µM (inactive)
same,GI50,HOP-62,> 100 µM (inactive)
same,GI50,SK-MEL-2,> 100 µM (inactive)
same,GI50,CAKI-1,> 100 µM (inactive)
same,GI50,OVCAR-8,> 100 µM (inactive)
same,GI50,LXFL 529,> 100 µM (inactive)
same,GI50,OVCAR-4,> 100 µM (inactive)
same,GI50,Malme-3M,> 100 µM (inactive)
same,GI50,HCT-116,> 100 µM (inactive)
same,GI50,DMS-273,> 100 µM (inactive)
same,GI50,HL-60,> 100 µM (inactive)
same,GI50,KM12,> 100 µM (inactive)
same,GI50,SW-620,> 100 µM (inactive)
same,GI50,HCT-15,> 100 µM
same,GI50,M19-MEL,> 100 µM (inactive)
same,GI50,LOX IMVI,> 100 µM (inactive)
same,GI50,COLO 205,> 100 µM (inactive)
same,GI50,SNB-19,> 100 µM (inactive)
same,GI50,HT-29,> 100 µM (inactive)
same,GI50,UO-31,> 100 µM (inactive)
same,GI50,SF-295,> 100 µM (inactive)
same,GI50,UACC-257,> 100 µM (inactive)
same,GI50,NCI-H460,> 100 µM (inactive)
same,GI50,OVCAR-5,> 100 µM (inactive)
C[Si](C)(C)/C(Br)=C\CCN1C(=O)CCC1O (configuration not stated),GI50,HOP-92,91.4 µM (inactive)
same,GI50,HOP-18,> 100 µM (inactive)
same,GI50,KM-20L2,> 100 µM (inactive)
same,GI50,SN12C,> 100 µM (inactive)
same,GI50,K562,> 100 µM (inactive)
same,GI50,NCI-H226,> 100 µM (inactive)
same,GI50,OVCAR-3,> 100 µM (inactive)
same,GI50,TK-10,> 100 µM (inactive)
same,GI50,M14,> 100 µM (inactive)
same,GI50,786-0,> 100 µM (inactive)
same,GI50,MOLT-4,> 100 µM (inactive)
same,GI50,A549,> 100 µM (inactive)
same,GI50,NCI-H23,> 100 µM (inactive)
same,GI50,SNB-75,34.2 µM (inactive)
same,GI50,SK-MEL-2,> 100 µM (inactive)
same,GI50,ACHN,> 100 µM (inactive)
same,GI50,XF498,> 100 µM (inactive)
same,GI50,NCI-H522,71.9 µM (inactive)
same,GI50,OVCAR-8,> 100 µM (inactive)
same,GI50,SF-268,> 100 µM (inactive)
same,GI50,LXFL 529,> 100 µM (inactive)
same,GI50,OVCAR-4,> 100 µM (inactive)
same,GI50,Malme-3M,> 100 µM (inactive)
same,GI50,SF-539,> 100 µM (inactive)
same,GI50,A498,> 100 µM (inactive)
same,GI50,HCT-116,> 100 µM (inactive)
same,GI50,DMS-273,> 100 µM (inactive)
same,GI50,KM12,> 100 µM (inactive)
same,GI50,SW-620,> 100 µM (inactive)
same,GI50,U-251,> 100 µM (inactive)
same,GI50,DMS-114,> 100 µM (inactive)
same,GI50,UACC-62,> 100 µM (inactive)
same,GI50,HCT-15,> 100 µM
same,GI50,M19-MEL,> 100 µM (inactive)
same,GI50,RXF 393,> 100 µM (inactive)
same,GI50,LOX IMVI,> 100 µM (inactive)
same,GI50,COLO 205,> 100 µM (inactive)
same,GI50,SK-OV-3,> 100 µM (inactive)
same,GI50,SNB-19,> 100 µM (inactive)
same,GI50,HT-29,> 100 µM (inactive)
same,GI50,UO-31,> 100 µM (inactive)
same,GI50,RPMI-8226,> 100 µM (inactive)
same,GI50,IGROV-1,> 100 µM (inactive)
same,GI50,SF-295,> 100 µM (inactive)
same,GI50,EKVX,> 100 µM (inactive)
same,GI50,UACC-257,> 100 µM (inactive)
same,GI50,CCRF-CEM,> 100 µM (inactive)
same,GI50,SK-MEL-28,> 100 µM (inactive)
same,GI50,NCI-H460,> 100 µM (inactive)
same,GI50,SNB-78,> 100 µM (inactive)
same,GI50,OVCAR-5,> 100 µM (inactive)
Clc1ccc(-c2nnc3c4nnc(-c5ccc(Cl)cc5Cl)n4c4ccccc4n23)c(Cl)c1,GI50,HOP-92,92.3 µM (inactive)
same,GI50,HCC 2998,> 100 µM (inactive)
same,GI50,SK-MEL-5,> 100 µM (inactive)
same,GI50,KM-20L2,> 100 µM (inactive)
same,GI50,SN12C,> 100 µM (inactive)
same,GI50,K562,> 100 µM (inactive)
same,GI50,OVCAR-3,> 100 µM (inactive)
same,GI50,TK-10,> 100 µM (inactive)
same,GI50,M14,> 100 µM (inactive)
same,GI50,786-0,82.4 µM (inactive)
same,GI50,MOLT-4,> 100 µM (inactive)
same,GI50,A549,> 100 µM (inactive)
same,GI50,NCI-H23,> 100 µM (inactive)
same,GI50,HOP-62,> 100 µM (inactive)
same,GI50,SNB-75,26.5 µM (inactive)
same,GI50,SK-MEL-2,> 100 µM (inactive)
same,GI50,ACHN,> 100 µM (inactive)
same,GI50,XF498,> 100 µM (inactive)
same,GI50,CAKI-1,> 100 µM (inactive)
same,GI50,NCI-H522,> 100 µM (inactive)
same,GI50,OVCAR-8,> 100 µM (inactive)
same,GI50,SF-268,> 100 µM (inactive)
same,GI50,LXFL 529,> 100 µM (inactive)
same,GI50,OVCAR-4,> 100 µM (inactive)
same,GI50,Malme-3M,> 100 µM (inactive)
same,GI50,SF-539,> 100 µM (inactive)
same,GI50,DLD-1,> 100 µM (inactive)
same,GI50,A498,> 100 µM (inactive)
same,GI50,HCT-116,> 100 µM (inactive)
same,GI50,DMS-273,> 100 µM (inactive)
same,GI50,KM12,> 100 µM (inactive)
same,GI50,SW-620,> 100 µM (inactive)
same,GI50,U-251,> 100 µM (inactive)
same,GI50,DMS-114,> 100 µM (inactive)
same,GI50,UACC-62,> 100 µM (inactive)
same,GI50,HCT-15,> 100 µM
same,GI50,M19-MEL,> 100 µM (inactive)
same,GI50,RXF 393,> 100 µM (inactive)
same,GI50,LOX IMVI,> 100 µM (inactive)
same,GI50,COLO 205,> 100 µM (inactive)
same,GI50,SK-OV-3,> 100 µM (inactive)
same,GI50,SNB-19,63.5 µM (inactive)
same,GI50,HT-29,> 100 µM (inactive)
same,GI50,UO-31,> 100 µM (inactive)
same,GI50,RPMI-8226,> 100 µM (inactive)
same,GI50,IGROV-1,> 100 µM (inactive)
same,GI50,SF-295,> 100 µM (inactive)
same,GI50,EKVX,> 100 µM (inactive)
same,GI50,UACC-257,> 100 µM (inactive)
same,GI50,CCRF-CEM,> 100 µM (inactive)
same,GI50,SK-MEL-28,> 100 µM (inactive)
same,GI50,NCI-H460,> 100 µM (inactive)
same,GI50,SNB-78,34.4 µM (inactive)
same,GI50,OVCAR-5,> 100 µM (inactive)
CCC1C(=O)OCc2c1cc1n(c2=O)C(CC)c2c-1nc1ccccc1c2Cl (configuration not stated),GI50,HOP-92,26.9 µM (inactive)
same,GI50,SK-MEL-5,16.7 µM (inactive)
same,GI50,HOP-18,20.3 µM (inactive)
same,GI50,KM-20L2,31.3 µM (inactive)
same,GI50,K562,27.9 µM (inactive)
same,GI50,NCI-H226,29.1 µM (inactive)
same,GI50,OVCAR-3,20.3 µM (inactive)
same,GI50,TK-10,40.9 µM (inactive)
same,GI50,M14,33.7 µM (inactive)
same,GI50,786-0,15.7 µM (inactive)
same,GI50,MOLT-4,10.4 µM (inactive)
same,GI50,A549,26.7 µM (inactive)
same,GI50,NCI-H23,25.6 µM (inactive)
same,GI50,HOP-62,20.7 µM (inactive)
same,GI50,SK-MEL-2,21 µM (inactive)
same,GI50,ACHN,27.4 µM (inactive)
same,GI50,XF498,24.8 µM (inactive)
same,GI50,CAKI-1,23 µM (inactive)
same,GI50,NCI-H522,15 µM (inactive)
same,GI50,SF-268,23.9 µM (inactive)
same,GI50,LXFL 529,25.9 µM (inactive)
same,GI50,OVCAR-4,22.4 µM (inactive)
same,GI50,Malme-3M,38.8 µM (inactive)
same,GI50,SF-539,17.3 µM (inactive)
same,GI50,DLD-1,35.2 µM (inactive)
same,GI50,A498,21.9 µM (inactive)
same,GI50,DMS-273,7.85 µM (inactive)
same,GI50,HL-60,22.2 µM (inactive)
same,GI50,KM12,24.6 µM (inactive)
same,GI50,SW-620,24 µM (inactive)
same,GI50,U-251,19.3 µM (inactive)
same,GI50,UACC-62,18.2 µM (inactive)
same,GI50,HCT-15,36.6 µM
same,GI50,M19-MEL,32.4 µM (inactive)
same,GI50,LOX IMVI,33.1 µM (inactive)
same,GI50,COLO 205,16.2 µM (inactive)
same,GI50,SK-OV-3,33.9 µM (inactive)
same,GI50,SNB-19,29.6 µM (inactive)
same,GI50,HT-29,24.1 µM (inactive)
same,GI50,UO-31,23.9 µM (inactive)
same,GI50,RPMI-8226,13.2 µM (inactive)
same,GI50,IGROV-1,19.9 µM (inactive)
same,GI50,SF-295,23.4 µM (inactive)
same,GI50,EKVX,25.2 µM (inactive)
same,GI50,UACC-257,29.6 µM (inactive)
same,GI50,CCRF-CEM,11.6 µM (inactive)
same,GI50,SK-MEL-28,35 µM (inactive)
same,GI50,NCI-H460,15.1 µM (inactive)
same,GI50,SNB-78,25.6 µM (inactive)
same,GI50,OVCAR-5,23.1 µM (inactive)
